According to publication PMC6770006, “Novel Heat Shock Protein 90 Inhibitors Suppress P-Glycoprotein Activity and Overcome Multidrug Resistance in Cancer Cells” (International Journal of Molecular Sciences, 2019):
“Also recorded” adds a separate entry of the source.

How the values were obtained:
[1] = tested on: NCI-H460, NCI-H460/R, DLD1, DLD1-TxR cells; experiment: MTT assay, grouping of inhibitors by IC50 over the cancer cell lines; format: cell-based; details: Homo sapiens, Figure 2b, read-out: IC50 values (grouping for Pearson correlation)
Experimental: When the IC50 values obtained by the MTT assay were compared to Hsp90 affinity binding IC50 values (Table 1), a positive Pearson correlation (r > 0.5) was found for all cancer cell lines (Figure 2b).
(§1) Cell viability was assessed by the MTT assay (AppliChem GmbH, Darmstadt, Germany). Cells grown in 25 cm^2 tissue flasks were trypsinized and 1000 cells/well were seeded into flat-bottomed 96-well tissue culture plates and incubated overnight. Subsequently, the cells were treated with increasing concentrations of Hsp90 inhibitors for 72 h: compound 3 (0.1–2.5 µM), compound 4 (0.25–5 µM), compound 5 (0.5–25 µM), compound 6 (50–1000 nM), compound 7 (10–250 nM), compound 8 (0.25–5 µM), compound 9 (10–250 nM), compound 10 (0.5–25 µM), compound 13 (0.5–10 µM), compound 14 (1–25 µM), and compound 15 (10–250 nM). […] After treatment, MTT was added to each well in a final concentration of 0.2 mg/mL for 4 h. Formazan product was dissolved in 200 µl of DMSO, and the absorbance was measured at 540 nm using an automatic LKB 5060-006 Micro Plate Reader (Vienna, Austria). IC50 value was defined as a concentration of the drug that inhibited cell growth by 50% and was calculated by nonlinear regression analysis using GraphPad Prism 6.0 for Windows (La Jolla, CA, USA). Relative selectivity towards cancer cells was calculated as a relation between IC50 value obtained in MRC-5 cells and an average IC50 value from four tested cancer cell lines.

MRC-5 cells = experiment: MTT assay, normal embryonic lung fibroblasts MRC-5; format: cell-based, human; details: for IC50: Homo sapiens, MRC5, MTT, 72 h, normal fibroblasts, read-out: Cell growth inhibition IC50, MRC-5; for Relative Selectivity: IC50 in MRC-5 cells / average IC50 of four cancer cell lines
Experimental: (§2) A series of 3-aryl-naphtho[2,3-d]isoxazole-4,9-diones were synthesized (Scheme 1, Figure 1) and their growth inhibition activity was tested in vitro on human non-small cell lung carcinoma NCI-H460, colorectal carcinoma DLD1 and their corresponding MDR cells (NCI-H460/R and DLD1-TxR, respectively), as well as normal embryonic lung fibroblasts MRC-5. The differences in cell growth inhibition between cancer and normal cells obtained by the MTT assay after 72 h treatment are presented in Table 1. The effect of compounds is presented as IC50 values that correspond to the 50% of cell growth inhibition.
as §1

DLD1-TxR cells = experiment: MTT assay, cell growth inhibition, DLD1-TxR (MDR); format: cell-based, human; details: 72 h; for IC50: Homo sapiens, MDR cells
Experimental: as §2
(§3) Human colorectal carcinoma (DLD1), non-small cell lung carcinoma (NCI-H460), and normal embryonic lung fibroblast (MRC-5) cell lines were purchased from the American Type Culture Collection, Rockville, MD. P-gp overexpressing multidrug resistant DLD1-TxR cells were selected by continuous exposure to stepwise increasing concentrations of paclitaxel from DLD1 cells, while NCI-H460/R cells were selected from NCI-H460 cells after DOX selective pressure. MDR cancer cell lines, DLD1-TxR and NCI-H460/R, and their sensitive counterparts were maintained in RPMI 1640 medium supplemented with 10% FBS, 2 mM L-glutamine, and 10,000 U/mL penicillin, 10 mg/mL streptomycin, 25 mg/mL amphotericin B solutions. MRC-5 cells were cultured in DMEM supplemented with 10% FBS, 4 g/L glucose, 2 mM L-glutamine and 5000 U/mL penicillin, 5 mg/mL streptomycin solution. All cell lines were sub-cultured at 72 h intervals using 0.25% trypsin/EDTA and seeded into a fresh medium at 8000 cells/cm^2. All cell lines were maintained at 37 °C in a humidified 5% CO2 atmosphere.
as §1

DLD1 cells = experiment: MTT assay, cell growth inhibition, DLD1; format: cell-based; details: Homo sapiens, DLD-1, 72 h
Experimental: as §2, §1

Hsp90 = tested on: Hsp90; parameters: method as in PMID 22538015; details: read-out: Hsp90 Affinity binding; cited from earlier work
NCI-H460 cells = experiment: MTT assay, cell growth inhibition, NCI-H460; format: cell-based; details: Homo sapiens, 72 h, three independent experiments
Experimental: as §2, §1

P-gp = P-gp (Homo sapiens, UniProt P08183); experiment: Rhodamine 123 accumulation assay (P-gp activity, flow cytometry); format: cell-based; parameters: P-gp overexpressing multidrug resistant DLD1-TxR cells were selected by continuous exposure to stepwise increasing concentrations of paclitaxel from DLD1 cells; endogenous in cells; host or cells: NCI-H460/R and DLD1-TxR (drug-selected MDR human cancer cells); details: 30 min, Figure 3a; for P-gp activity / Rho 123 accumulation: MDR NCI-H460/R and DLD1-TxR cells, one concentration per compound (100 nM-10 µM)
Experimental: To study the effect of Hsp90 inhibitors on P-gp activity in MDR cancer cells, intracellular accumulation of the P-gp substrate rhodamine 123 (Rho 123) was analyzed by flow cytometry after 30 min treatment (Figure 3a). A well-known inhibitor of P-gp activity, tariquidar (TQ), was included as a positive control.
The accumulation of Rho 123, a fluorescent P-gp substrate, was measured by flow cytometry. The intensity of the fluorescence is proportional to Rho 123 accumulation in the cell. All cell lines were seeded in adherent 6-well plates and grown overnight. DLD1-TxR and NCI-H460/R cells were treated for 30 min with the following concentrations of Hsp90 inhibitors: 500 nM compound 3, 1 µM compound 4, 10 µM compound 5, 500 nM compound 6, 500 nM compound 7, 1 µM compound 8, 500 nM compound 9, 1 µM compound 10, 1 µM compound 13, 10 µM compound 14, 100 nM compound 15. TQ (10 nM) was used as a positive control for Rho 123 accumulation. Rho 123 (5 μM) was simultaneously added with the investigated compounds and the cells were incubated at 37 °C in 5% CO2 for 30 min. The cells were then trypsinized, pelleted by centrifugation, washed with PBS and placed in ice-cold PBS. The samples were kept on ice in the dark until the analysis on CyFlow Space Partec flow cytometer (Sysmex Partec GmbH, Görlitz, Germany). The fluorescence of Rho 123 was detected on fluorescence channel 1 (FL1-H) at 530 nm. A minimum of 10,000 events were collected for each sample and the obtained results were analyzed using Summit software.

NCI-H460/R cells = experiment: MTT assay, cell growth inhibition, NCI-H460/R (MDR); format: cell-based, human; details: for Efficacy in MDR NCI-H460/R cells compared with sensitive NCI-H460: 72 h; for IC50: Homo sapiens, NCI-H460, 72 h, MDR cells
Experimental: as §2, §3, §1

P-gp expression = experiment: Flow cytometric analysis of P-gp expression; format: cell-based, human; details: 72 h; for Change in P-gp expression, DLD1 / Change in P-gp expression, NCI-H460: 5 µM 5, 200 nM 7, 100 nM 9, 10 nM TQ, 50 nM DOX, 50 nM PTX
Experimental: P-glycoprotein expression level in NCI-H460, NCI-H460/R, DLD1, and DLD1-TxR and cells was measured by flow cytometry. All cell lines were seeded in adherent 6-well plates and treated with Hsp90 inhibitors for 72 h at the following concentrations: 5 µM compound 5, 200 nM compound 7, 100 nM compound 9 (NCI-H460 and DLD1), and 10 µM compound 5, 500 nM compound 7, 500 nM compound 9 (NCI-H460/R and DLD1-TxR). Cells were also treated with 10 nM TQ, a non-competitive P-gp inhibitor, which served as a positive control. In addition, sensitive cells (NCI-H460 and DLD1) were treated with 50 nM DOX and 50 nM PTX that served as positive controls for the induction of P-gp expression. Then, cells were collected by trypsinization, washed with PBS, and directly immunostained by FITC-conjugated anti-P-gp antibody according to the manufacturer’s protocol. The samples were kept in the dark until the analysis on CyFlow Space Partec flow cytometer (Sysmex Partec GmbH, Görlitz, Germany). The fluorescence of FITC-conjugated anti-P-gp was detected on fluorescence channel 1 (FL1-H) at 530 nm. A minimum of 10,000 events were collected for each sample (the gate excluded cell debris and dead cells) and the obtained results were analyzed with Summit software v4.3 (Dako Colorado Inc., Fort Collins, CO, USA).

[2] = 10 µM 5, 500 nM 7, 500 nM 9, 10 nM TQ

Chain of P-gp (P08183 whole entry): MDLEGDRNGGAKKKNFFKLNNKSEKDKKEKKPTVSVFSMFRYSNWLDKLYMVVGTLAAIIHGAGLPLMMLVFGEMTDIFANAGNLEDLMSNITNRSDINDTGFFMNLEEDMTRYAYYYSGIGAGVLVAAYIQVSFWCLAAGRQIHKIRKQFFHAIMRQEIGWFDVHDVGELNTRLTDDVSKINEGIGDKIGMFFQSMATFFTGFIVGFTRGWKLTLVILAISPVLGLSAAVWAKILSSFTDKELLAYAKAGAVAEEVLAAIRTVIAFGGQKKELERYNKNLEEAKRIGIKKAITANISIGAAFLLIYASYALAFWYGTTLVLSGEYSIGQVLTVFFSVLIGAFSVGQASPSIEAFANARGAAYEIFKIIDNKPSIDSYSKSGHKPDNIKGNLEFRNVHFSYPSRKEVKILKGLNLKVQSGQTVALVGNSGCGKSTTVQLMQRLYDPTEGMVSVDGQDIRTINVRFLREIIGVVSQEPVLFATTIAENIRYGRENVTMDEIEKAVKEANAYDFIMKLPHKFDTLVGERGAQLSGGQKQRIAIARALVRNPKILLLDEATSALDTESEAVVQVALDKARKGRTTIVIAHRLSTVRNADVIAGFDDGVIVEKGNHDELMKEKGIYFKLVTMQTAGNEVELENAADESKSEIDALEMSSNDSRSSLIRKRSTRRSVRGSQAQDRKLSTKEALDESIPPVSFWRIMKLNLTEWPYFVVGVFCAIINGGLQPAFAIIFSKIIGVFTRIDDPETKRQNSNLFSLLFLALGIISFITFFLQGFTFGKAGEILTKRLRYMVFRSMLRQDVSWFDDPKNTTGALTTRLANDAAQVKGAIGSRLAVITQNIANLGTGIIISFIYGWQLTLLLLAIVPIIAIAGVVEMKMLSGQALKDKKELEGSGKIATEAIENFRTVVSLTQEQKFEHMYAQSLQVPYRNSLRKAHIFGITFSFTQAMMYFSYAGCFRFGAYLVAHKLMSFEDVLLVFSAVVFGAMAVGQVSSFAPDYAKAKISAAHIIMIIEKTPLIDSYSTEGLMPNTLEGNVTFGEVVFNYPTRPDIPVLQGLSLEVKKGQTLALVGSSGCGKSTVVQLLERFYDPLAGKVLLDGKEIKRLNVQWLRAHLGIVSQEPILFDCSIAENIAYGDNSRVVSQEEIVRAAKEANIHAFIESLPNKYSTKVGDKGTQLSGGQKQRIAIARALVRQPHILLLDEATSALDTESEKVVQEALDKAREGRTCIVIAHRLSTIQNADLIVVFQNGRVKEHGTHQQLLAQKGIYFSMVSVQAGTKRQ

IC50 [1] | IC50 (DLD1-TxR cells) | IC50 (DLD1 cells) | IC50 (NCI-H460 cells) | P-gp activity / Rho 123 accumulation (P-gp) | IC50 (NCI-H460/R cells) | P-gp activity / Rho 123 accumulation in DLD1-TxR (P-gp; DLD1-TxR cells) | SMILES | IC50 (MRC-5 cells) | Efficacy in MDR DLD1-TxR cells compared with sensitive DLD1 (DLD1-TxR cells) | IC50 (Hsp90) | Efficacy in MDR NCI-H460/R cells compared with sensitive NCI-H460 (NCI-H460/R cells) | Relative Selectivity (MRC-5 cells) | Change in P-gp expression, DLD1 (P-gp expression) | Change in P-gp expression, NCI-H460 (P-gp expression) | Change in P-gp expression, DLD1-TxR (P-gp expression; [2]) | Change in P-gp expression, NCI-H460/R (P-gp expression; [2])
≥ 1000 nM | 1790 ± 36 nM | 2640 ± 35 nM | 1270 ± 14 nM | reduction in activity | 1375 ± 12 nM |  | O=C1c2ccccc2C(=O)c2c(-c3ccccn3)noc21 [Compound 10] | 257 ± 4 nM | collateral sensitivity | 1060 nM | overcame resistance |  |  |  |  | 
≥ 1000 nM | 1000 ± 16 nM | 1900 ± 36 nM | 1250 ± 28 nM | decreased | 1060 ± 12 nM |  | COc1cccc2c1C(=O)c1c(-c3ccncc3)noc1C2=O [Compound 13] | 174 ± 4 nM | collateral sensitivity | 1900 nM | evaded resistance mechanisms |  |  |  |  | 
≥ 1000 nM | 10600 ± 270 nM | 7450 ± 212 nM | 978 ± 18 nM |  | 23600 ± 470 nM | partially restored | COc1cccc2c1C(=O)c1c(-c3cc[n+](Cc4ccccc4)cc3)noc1C2=O [Compound 14] | 53300 ± 1730 nM | further compromised in the presence of MDR phenotype in both cell lines | 340 nM | further compromised in the presence of MDR phenotype in both cell lines | 5.00 |  |  |  | 

The remaining lines, values behind:

SMILES | IC50 [1] | IC50 (DLD1-TxR cells) | IC50 (DLD1 cells) | IC50 (NCI-H460 cells) | P-gp activity / Rho 123 accumulation (P-gp) | IC50 (NCI-H460/R cells) | P-gp activity / Rho 123 accumulation in DLD1-TxR (P-gp; DLD1-TxR cells) | IC50 (MRC-5 cells) | Efficacy in MDR DLD1-TxR cells compared with sensitive DLD1 (DLD1-TxR cells) | IC50 (Hsp90) | Efficacy in MDR NCI-H460/R cells compared with sensitive NCI-H460 (NCI-H460/R cells) | Relative Selectivity (MRC-5 cells) | Change in P-gp expression, DLD1 (P-gp expression) | Change in P-gp expression, NCI-H460 (P-gp expression) | Change in P-gp expression, DLD1-TxR (P-gp expression; [2]) | Change in P-gp expression, NCI-H460/R (P-gp expression; [2])
O=C1c2ccccc2C(=O)c2c(-c3ccccc3)noc21 [Compound 3] | < 1000 nM | 644 ± 20 nM | 925 ± 32 nM | 785 ± 32 nM | did not influence the P-gp activity | 599 ± 20 nM |  | 636 ± 23 nM | better efficacy in cells with MDR phenotype | 7850 nM | better efficacy in cells with MDR phenotype |  |  |  |  | 
COc1ccc(-c2noc3c2C(=O)c2ccccc2C3=O)cc1 [Compound 4] |  | 1060 ± 25 nM | 1520 ± 54 nM | 935 ± 48 nM | did not have any positive effects | 579 ± 18 nM |  | 1750 ± 83 nM | remained higher than in the corresponding sensitive cells | 5840 nM | remained higher than in the corresponding sensitive cells | 1.71 |  |  |  | 
O=C1c2ccccc2C(=O)c2c(-c3ccc(OCCN4CCOCC4)cc3)noc21 [Compound 6] | < 1000 nM | 439 ± 10 nM | 439 ± 6 nM | 807 ± 35 nM | did not have any positive effects | 472 ± 18 nM |  | 4740 ± 473 nM | evaded resistance | 1200 nM | collateral sensitivity | 8.79 |  |  |  | 
O=C1c2ccccc2C(=O)c2c(-c3cc[n+](Cc4ccccc4)cc3)noc21 [Compound 8] | ≥ 1000 nM | 3360 ± 49 nM | 251 ± 3 nM | 159 ± 3 nM | detrimental; also recorded: modest activity | 351 ± 5 nM |  | 11000 ± 366 nM | compromised in the presence of the MDR phenotype | 34 nM | compromised in the presence of the MDR phenotype | 10.69 |  |  |  | 
CC(=O)O[C@H]1C(=O)[C@@]2(C)[C@H]([C@H](OC(=O)c3ccccc3)[C@]3(O)C[C@H](OC(=O)[C@H](O)[C@@H](NC(=O)c4ccccc4)c4ccccc4)C(C)=C1C3(C)C)[C@]1(OC(C)=O)CO[C@@H]1C[C@@H]2O [PTX, paclitaxel] |  |  |  |  |  |  |  |  |  |  |  |  | significantly increased P-gp expression | significantly increased P-gp expression |  | 
COc1cc2c(cc1OC)CN(CCc1ccc(NC(=O)c3cc(OC)c(OC)cc3NC(=O)c3cnc4ccccc4c3)cc1)CC2 [TQ, tariquidar] |  |  |  |  |  |  |  |  |  |  |  |  | increased P-gp expression | did not influence the P-gp expression | increased P-gp expression | did not influence the P-gp expression
